Key:
[1] = biological target: Substance P 1-7 binding site; assay: Binding affinity to SP1-7 binding site
[2] = biological target: Substance P 1-7 binding site; assay: Displacement of [3H]-SP1-7 from SP1-7 binding site by scintillation counting analysis

| Ki [1] [nM] | IC50 [2] [nM] | Ki [2] [nM] | Compound |
| --- | --- | --- | --- |
| 5.2 | 6.2 | 5.2 | NC(=O)[C@H](Cc1ccccc1)NC(=O)OCc1ccccc1 |
|  | 17 |  | N#CNC(=O)[C@H](Cc1ccccc1)NC(=O)OCc1ccccc1 |
|  | 6.5 |  | O=C(N[C@@H](Cc1ccccc1)C(=O)NNC(=O)c1ccccc1)OCc1ccccc1 |
|  | 9 |  | O=C(N[C@@H](Cc1ccccc1)c1nnc(-c2ccccc2)o1)OCc1ccccc1 |
